ChEMBL document CHEMBL5696442, “Discovery of type II inhibitors of TGFβ-activated kinase 1 (TAK1) and mitogen-activated protein kinase kinase kinase kinase 2 (MAP4K2)” (J Med Chem, 2015)
Active and inactive are the calls of the source. The rule behind the calls is not given here.

Experiments:
[1] = target: Bone morphogenetic protein receptor type-2 (Homo sapiens) (UniProt Q13873); assay: Inhibition of BMPR2 (unknown origin) at 10 uM by Ambit Kinomescan binding assay
[2] = target: Calcium/calmodulin-dependent protein kinase kinase 2 (Homo sapiens) (UniProt Q96RR4); assay: Inhibition of CAMKK2 (unknown origin) at 10 uM by Ambit Kinomescan binding assay relative to control
[3] = tested on: Epidermal growth factor receptor (Homo sapiens), P00533 [UNDEFINED MUTATION]; assay: Inhibition of EGFR L747-T751del mutant (unknown origin) at 10 uM by Ambit Kinomescan binding assay relative to control
[4] = target: T1, Mitogen-activated protein kinase kinase kinase 6 (Homo sapiens) (UniProt O95382); assay: Inhibition of MAP3K6 Lys1 labeling site harbouring IAIKEIPERDSR in human A-375 cells at 5 uM by KiNativ Profiling analysis relative to control; format: cell-based
T1 sequence (whole entry): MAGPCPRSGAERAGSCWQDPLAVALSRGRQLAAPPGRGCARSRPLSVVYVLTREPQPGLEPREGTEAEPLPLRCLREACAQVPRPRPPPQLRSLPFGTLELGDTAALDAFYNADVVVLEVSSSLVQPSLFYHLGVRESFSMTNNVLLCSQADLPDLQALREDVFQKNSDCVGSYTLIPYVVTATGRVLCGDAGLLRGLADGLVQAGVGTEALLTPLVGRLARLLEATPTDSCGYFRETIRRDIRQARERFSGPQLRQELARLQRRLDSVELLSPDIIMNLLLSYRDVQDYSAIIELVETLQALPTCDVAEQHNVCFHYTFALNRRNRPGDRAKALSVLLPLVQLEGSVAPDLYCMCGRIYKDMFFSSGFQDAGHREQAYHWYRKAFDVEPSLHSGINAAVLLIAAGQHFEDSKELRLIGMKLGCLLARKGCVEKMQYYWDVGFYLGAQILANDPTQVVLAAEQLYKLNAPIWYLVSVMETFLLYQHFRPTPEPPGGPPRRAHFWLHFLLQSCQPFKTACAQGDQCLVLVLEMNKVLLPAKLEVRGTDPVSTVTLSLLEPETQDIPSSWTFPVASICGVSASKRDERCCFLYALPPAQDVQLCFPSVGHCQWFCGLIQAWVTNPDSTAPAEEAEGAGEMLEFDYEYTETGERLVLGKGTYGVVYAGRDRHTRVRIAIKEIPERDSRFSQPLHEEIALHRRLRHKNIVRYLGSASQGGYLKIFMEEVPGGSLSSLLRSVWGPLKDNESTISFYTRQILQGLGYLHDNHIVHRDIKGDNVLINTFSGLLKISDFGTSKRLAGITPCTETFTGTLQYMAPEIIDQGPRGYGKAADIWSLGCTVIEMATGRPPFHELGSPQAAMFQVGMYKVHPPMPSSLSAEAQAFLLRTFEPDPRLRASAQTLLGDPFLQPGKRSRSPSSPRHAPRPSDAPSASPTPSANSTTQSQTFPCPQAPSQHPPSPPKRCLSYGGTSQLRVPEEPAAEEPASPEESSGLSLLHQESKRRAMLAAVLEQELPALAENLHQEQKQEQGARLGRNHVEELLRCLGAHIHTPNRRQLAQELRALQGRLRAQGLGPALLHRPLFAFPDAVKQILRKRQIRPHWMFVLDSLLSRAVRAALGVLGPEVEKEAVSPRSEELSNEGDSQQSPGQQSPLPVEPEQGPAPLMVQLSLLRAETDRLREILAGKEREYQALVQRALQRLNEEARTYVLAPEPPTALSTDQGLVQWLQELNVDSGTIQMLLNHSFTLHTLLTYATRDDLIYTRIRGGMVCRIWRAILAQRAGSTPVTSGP

[5] = target: Casein kinase I isoform delta (Homo sapiens) (UniProt P48730); assay: Inhibition of CK1delta Lys2 labeling site in human A-375 cells at 0.5 uM by KiNativ Profiling analysis relative to control; format: cell-based
[6] = target: MAST1/MAST2 (Homo sapiens) (UniProt Q9Y2H9+Q6P0Q8); assay: Inhibition of MAST1/2 K2 labeling site in human Huh-7 cells at 10 uM by KiNativ Profiling analysis relative to control; format: cell-based
[7] = target: Serine/threonine-protein kinase Chk2 (Homo sapiens) (UniProt O96017); assay: Inhibition of CHK2 K2 labeling site in human Huh-7 cells at 1 uM by KiNativ Profiling analysis relative to control; format: cell-based
[8] = target: Serine/threonine-protein kinase MRCK alpha (Homo sapiens) (UniProt Q5VT25); assay: Inhibition of MRCKA (unknown origin) at 1 uM by Ambit Kinomescan binding assay relative to control
[9] = target: Serine/threonine-protein kinase RIO3 (Homo sapiens) (UniProt O14730); assay: Inhibition of RIOK3 (unknown origin) at 1 uM by Ambit Kinomescan binding assay relative to control
[10] = target: Rhodopsin kinase GRK1 (Homo sapiens) (UniProt Q15835); assay: Inhibition of GRK1 (unknown origin) at 1 uM by Ambit Kinomescan binding assay relative to control; values are per cent of control
[11] = target: Serine/threonine-protein kinase 38-like (Homo sapiens) (UniProt Q9Y2H1); assay: Inhibition of NDR2 (unknown origin) at 1 uM by Ambit Kinomescan binding assay relative to control; values are per cent of control
[12] = target: Homeodomain-interacting protein kinase 3 (Homo sapiens) (UniProt Q9H422); assay: Inhibition of HIPK3 (unknown origin) at 1 uM by Ambit Kinomescan binding assay relative to control; values are per cent of control
[13] = target: Serine/threonine-protein kinase/endoribonuclease IRE1 (Homo sapiens) (UniProt O75460); assay: Inhibition of IRE1 Lys2 labeling site in human Huh-7 cell lysate at 1 uM by KiNativ Profiling analysis relative to control; format: subcellular
Chain of Serine/threonine-protein kinase/endoribonuclease IRE1 (Homo sapiens) (O75460 19-977 limits assumed): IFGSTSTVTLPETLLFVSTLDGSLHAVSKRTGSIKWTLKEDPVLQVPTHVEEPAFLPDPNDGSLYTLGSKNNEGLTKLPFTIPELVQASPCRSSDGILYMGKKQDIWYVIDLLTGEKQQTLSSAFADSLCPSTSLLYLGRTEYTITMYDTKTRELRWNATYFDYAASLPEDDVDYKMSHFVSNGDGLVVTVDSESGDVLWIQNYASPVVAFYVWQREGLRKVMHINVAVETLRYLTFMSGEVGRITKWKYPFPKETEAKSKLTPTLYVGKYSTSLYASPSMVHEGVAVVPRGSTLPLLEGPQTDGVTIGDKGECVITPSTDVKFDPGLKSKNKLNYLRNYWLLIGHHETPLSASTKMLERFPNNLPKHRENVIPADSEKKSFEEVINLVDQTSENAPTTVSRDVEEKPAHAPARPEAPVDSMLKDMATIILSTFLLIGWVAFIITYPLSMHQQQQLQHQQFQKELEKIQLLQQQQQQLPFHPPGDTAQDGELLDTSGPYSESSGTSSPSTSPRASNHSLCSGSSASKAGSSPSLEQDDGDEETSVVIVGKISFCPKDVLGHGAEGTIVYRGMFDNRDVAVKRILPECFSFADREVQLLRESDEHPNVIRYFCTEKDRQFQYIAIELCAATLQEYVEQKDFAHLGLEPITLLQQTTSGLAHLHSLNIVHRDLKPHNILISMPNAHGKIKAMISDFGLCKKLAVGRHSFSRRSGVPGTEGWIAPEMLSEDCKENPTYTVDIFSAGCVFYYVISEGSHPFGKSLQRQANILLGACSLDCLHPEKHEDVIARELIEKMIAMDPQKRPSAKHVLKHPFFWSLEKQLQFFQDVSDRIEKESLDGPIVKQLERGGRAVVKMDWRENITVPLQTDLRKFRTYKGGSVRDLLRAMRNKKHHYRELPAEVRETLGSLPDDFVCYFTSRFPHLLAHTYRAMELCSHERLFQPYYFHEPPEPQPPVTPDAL

Chain of Serine/threonine-protein kinase RIO3 (Homo sapiens) (O14730 whole entry): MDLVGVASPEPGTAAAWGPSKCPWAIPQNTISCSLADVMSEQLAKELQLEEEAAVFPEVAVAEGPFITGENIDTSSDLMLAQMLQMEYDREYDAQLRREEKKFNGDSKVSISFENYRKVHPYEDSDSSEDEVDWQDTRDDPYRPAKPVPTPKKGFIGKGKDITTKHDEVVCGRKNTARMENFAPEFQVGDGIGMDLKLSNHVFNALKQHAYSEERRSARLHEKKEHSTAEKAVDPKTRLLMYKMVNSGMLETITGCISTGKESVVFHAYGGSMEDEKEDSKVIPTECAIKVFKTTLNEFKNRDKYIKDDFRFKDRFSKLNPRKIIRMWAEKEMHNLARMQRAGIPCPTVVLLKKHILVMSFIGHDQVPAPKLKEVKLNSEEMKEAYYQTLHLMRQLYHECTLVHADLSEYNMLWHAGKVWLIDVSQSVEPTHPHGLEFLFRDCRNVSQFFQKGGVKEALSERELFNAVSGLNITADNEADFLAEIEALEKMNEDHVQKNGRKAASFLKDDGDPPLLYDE
Chain of Homeodomain-interacting protein kinase 3 (Homo sapiens) (Q9H422 whole entry, looked up): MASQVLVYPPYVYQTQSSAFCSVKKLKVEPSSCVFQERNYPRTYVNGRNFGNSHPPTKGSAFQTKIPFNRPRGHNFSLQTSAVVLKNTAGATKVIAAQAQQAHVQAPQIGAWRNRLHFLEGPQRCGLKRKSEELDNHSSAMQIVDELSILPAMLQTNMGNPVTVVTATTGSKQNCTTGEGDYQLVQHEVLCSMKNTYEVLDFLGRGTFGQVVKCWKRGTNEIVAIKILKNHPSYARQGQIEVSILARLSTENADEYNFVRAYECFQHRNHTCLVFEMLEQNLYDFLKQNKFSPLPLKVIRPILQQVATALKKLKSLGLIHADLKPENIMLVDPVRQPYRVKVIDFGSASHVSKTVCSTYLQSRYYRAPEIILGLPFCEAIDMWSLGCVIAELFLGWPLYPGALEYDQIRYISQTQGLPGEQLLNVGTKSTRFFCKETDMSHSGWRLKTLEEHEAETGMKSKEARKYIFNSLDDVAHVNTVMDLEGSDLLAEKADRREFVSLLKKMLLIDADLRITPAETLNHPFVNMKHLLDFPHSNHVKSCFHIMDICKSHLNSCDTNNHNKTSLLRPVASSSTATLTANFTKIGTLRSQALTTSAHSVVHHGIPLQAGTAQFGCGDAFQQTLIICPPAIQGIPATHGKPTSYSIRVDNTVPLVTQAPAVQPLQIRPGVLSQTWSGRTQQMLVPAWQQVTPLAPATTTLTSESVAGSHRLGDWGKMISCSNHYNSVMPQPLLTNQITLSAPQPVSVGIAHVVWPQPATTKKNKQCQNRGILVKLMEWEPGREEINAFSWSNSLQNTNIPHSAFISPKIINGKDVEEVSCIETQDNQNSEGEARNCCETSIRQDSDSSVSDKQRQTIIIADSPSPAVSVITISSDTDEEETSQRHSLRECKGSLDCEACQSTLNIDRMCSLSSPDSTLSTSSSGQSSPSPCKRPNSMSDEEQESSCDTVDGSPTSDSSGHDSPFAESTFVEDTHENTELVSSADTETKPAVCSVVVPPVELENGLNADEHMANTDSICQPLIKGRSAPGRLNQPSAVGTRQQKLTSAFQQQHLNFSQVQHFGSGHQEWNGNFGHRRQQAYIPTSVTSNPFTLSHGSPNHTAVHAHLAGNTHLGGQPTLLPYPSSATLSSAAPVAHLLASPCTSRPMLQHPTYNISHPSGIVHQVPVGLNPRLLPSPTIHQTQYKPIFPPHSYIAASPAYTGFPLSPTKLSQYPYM
Chain of Rhodopsin kinase GRK1 (Homo sapiens) (Q15835 whole entry): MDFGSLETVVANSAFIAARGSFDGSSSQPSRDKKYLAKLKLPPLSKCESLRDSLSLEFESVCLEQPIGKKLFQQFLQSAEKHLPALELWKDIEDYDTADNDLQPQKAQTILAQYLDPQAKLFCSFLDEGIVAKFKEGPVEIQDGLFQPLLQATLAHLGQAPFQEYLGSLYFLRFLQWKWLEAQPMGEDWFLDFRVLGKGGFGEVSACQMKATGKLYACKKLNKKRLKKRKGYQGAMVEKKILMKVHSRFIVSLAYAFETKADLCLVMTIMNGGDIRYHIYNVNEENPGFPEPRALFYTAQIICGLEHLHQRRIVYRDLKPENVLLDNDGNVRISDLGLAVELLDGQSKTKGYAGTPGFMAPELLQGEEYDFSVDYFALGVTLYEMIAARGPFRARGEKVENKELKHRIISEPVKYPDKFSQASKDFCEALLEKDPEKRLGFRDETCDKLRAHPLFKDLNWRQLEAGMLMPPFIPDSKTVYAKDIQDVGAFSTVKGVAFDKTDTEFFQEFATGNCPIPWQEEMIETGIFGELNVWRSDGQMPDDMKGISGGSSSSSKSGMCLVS
Chain of Casein kinase I isoform delta (Homo sapiens) (P48730 whole entry, looked up, canonical isoform): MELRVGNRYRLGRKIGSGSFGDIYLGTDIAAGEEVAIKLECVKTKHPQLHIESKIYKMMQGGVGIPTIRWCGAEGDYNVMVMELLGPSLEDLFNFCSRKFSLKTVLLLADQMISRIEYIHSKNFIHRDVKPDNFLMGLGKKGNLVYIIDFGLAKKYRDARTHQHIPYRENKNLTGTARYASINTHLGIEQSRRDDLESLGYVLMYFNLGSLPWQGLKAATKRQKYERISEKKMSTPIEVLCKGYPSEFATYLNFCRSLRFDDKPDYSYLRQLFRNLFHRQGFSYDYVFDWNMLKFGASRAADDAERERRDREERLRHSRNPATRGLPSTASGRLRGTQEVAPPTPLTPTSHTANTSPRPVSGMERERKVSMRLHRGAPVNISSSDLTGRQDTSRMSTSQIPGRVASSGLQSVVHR
Chain of Serine/threonine-protein kinase Chk2 (Homo sapiens) (O96017 whole entry): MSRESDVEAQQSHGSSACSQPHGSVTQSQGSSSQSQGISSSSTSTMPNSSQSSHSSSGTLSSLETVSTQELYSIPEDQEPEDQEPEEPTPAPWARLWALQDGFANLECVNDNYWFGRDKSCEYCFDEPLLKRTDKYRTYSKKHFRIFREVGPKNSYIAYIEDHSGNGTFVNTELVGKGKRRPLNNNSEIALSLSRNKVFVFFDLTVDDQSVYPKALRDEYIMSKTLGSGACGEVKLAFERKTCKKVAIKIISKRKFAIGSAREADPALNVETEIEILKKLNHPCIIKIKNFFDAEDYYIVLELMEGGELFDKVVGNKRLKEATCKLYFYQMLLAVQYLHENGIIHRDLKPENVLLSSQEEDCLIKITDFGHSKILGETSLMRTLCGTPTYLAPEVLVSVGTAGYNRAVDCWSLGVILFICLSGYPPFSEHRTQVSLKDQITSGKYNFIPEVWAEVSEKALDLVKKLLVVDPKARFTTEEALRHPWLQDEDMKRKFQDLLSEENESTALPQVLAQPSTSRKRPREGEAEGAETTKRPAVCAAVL
Chain of Calcium/calmodulin-dependent protein kinase kinase 2 (Homo sapiens) (Q96RR4 2-588 limits assumed): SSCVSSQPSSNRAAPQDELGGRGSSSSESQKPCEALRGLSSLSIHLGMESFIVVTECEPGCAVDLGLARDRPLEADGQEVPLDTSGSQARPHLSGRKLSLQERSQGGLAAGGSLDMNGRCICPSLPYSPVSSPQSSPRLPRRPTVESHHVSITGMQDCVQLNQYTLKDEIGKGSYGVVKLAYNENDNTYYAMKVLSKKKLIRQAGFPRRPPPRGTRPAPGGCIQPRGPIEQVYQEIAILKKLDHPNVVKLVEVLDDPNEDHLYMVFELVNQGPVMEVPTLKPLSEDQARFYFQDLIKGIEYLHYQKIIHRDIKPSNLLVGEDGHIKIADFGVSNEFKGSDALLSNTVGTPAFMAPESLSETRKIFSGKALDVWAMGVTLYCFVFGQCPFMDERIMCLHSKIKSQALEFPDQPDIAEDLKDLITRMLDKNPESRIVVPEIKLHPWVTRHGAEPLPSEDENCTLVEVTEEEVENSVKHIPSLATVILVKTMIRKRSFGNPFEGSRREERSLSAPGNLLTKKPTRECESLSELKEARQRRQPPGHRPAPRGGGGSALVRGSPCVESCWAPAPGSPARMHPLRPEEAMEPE

CCN1CCN(Cc2ccc(NC(=O)c3ccc(C)c(Oc4ccnc5[nH]ccc45)c3)cc2C(F)(F)F)CC1
inhibition [1]: inactive
inhibition [2]: 28%
inhibition [3]: 1.1%
inhibition [4]: -3.2%
inhibition [5]: 3.3%
inhibition [6]: 17.6%
inhibition [7]: 17.5%

CCN1CCN(Cc2ccc(NC(=O)c3ccc(C)c(/C=C/c4cnc5[nH]ccc5c4OC)c3)cc2C(F)(F)F)CC1
inhibition [8]: 79%
inhibition [9]: 27%
residual activity [10]: 100%
residual activity [11]: 79%
residual activity [12]: 80%

CNc1cc(Oc2cc(C(=O)Nc3cc(N4CCN(C)CC4)cc(C(F)(F)F)c3)ccc2C)ncn1
inhibition [13]: -2.5%
